Earlier results, collected in patent US5840324A, “Antiparasitic compositions” (Commonwealth Scientific and Industrial Organisation, priority 1993, dated 1998).

Assays:
[1] = for time of maximum concentration in the bloodstream: after oral administration; for absorption: conventional dosing; for activity of metabolic products: degradation products of absorbed compound

| SMILES | absorption of ABZ in the abomasum | time of maximum concentration in the bloodstream [1] [h] | absorption [1] | excretion of absorbed drug ([1]; in vivo) | metabolism ([1]; in vivo) | retention in the bloodstream at efficacious levels ([1]; against blood-consuming parasites) | dose lost in faeces ([1]; in vivo) | association with plasma albumin (plasma albumin) | activity of metabolic products [1] |
| --- | --- | --- | --- | --- | --- | --- | --- | --- | --- |
| CCCSc1ccc2nc(NC(=O)OC)[nH]c2c1 [ABZ, [5-(propylthio)-1H-benzimidazol-2-yl]carbamic acid methyl ester] | virtually no absorption | – | – | – | – | – | – | – | – |
| Cl.c1ccc([C@H]2CN3CCSC3=N2)cc1 [Levamisole, (-)-(S)-2,3,5,6-tetrahydro-6-phenylimidazo[2,1-b]thiazole hydrochloride] | – | 2 to 4 | rapidly absorbed from the rumen | rapidly excreted, predominantly in urine | rapidly metabolised | – | – | – | – |
| Cc1cc(C(C#N)c2ccc(Cl)cc2)c(Cl)cc1NC(=O)c1cc(I)cc(I)c1O (stereo not drawn) [closantel, 5'-chloro-4'-(4-chloro-α-cyanobenzyl)-3,5-diiodosalicyl-o-toluidide] | – | – | slowly absorbed | – | – | 3-4 weeks | about 50% | very strongly associate with plasma albumin | – |
| Cc1ccsc1/C=C/C1=NCCCN1C [morantel, (E)-1,4,5,6-tetrahydro-1-methyl-2-[2-(3-methyl-2-thienyl)vinyl]-pyrimidine] | – | 2 to 4 | rapidly absorbed from the rumen | rapidly excreted, predominantly in urine | degraded at a rate consistent with first-pass metabolism | – | – | – | completely inactive |
| CN1CCCN=C1/C=C/c1cccs1 [pyrantel, 1,4,5,6-tetrahydro-1-methyl-2-[(E)-2-(2-thienyl)-vinyl]-pyrimidine-4,4'-methylenebis-(3-hydroxy-2-naphthoate)] | – | 2 to 4 | rapidly absorbed from the rumen | rapidly excreted, predominantly in urine | degraded at a rate consistent with first-pass metabolism | – | – | – | completely inactive |
